Reference: US9597316B2, “Indole compounds for use in treating inflammation and cancer” (BIOVENTURES LLC, priority 2012, dated 2017)

Test system: NCI/ADR-RES (Ovarian Cancer)
Assay: five dose-response growth inhibition/cytotoxicity, NCI/ADR-RES
Format: cell-based, human
Conditions: not given

| SMILES | GI50 [µM] |
| --- | --- |
| O=C1NC(=S)NC(=O)C1=Cc1cn(C(=O)c2cccc3ccccc23)c2ccccc12 [Compound 3t] | 2.59 |

Same assay, conditions: read-out: LC50 (the source's name)

| SMILES | CC50 [µM] |
| --- | --- |
| O=C1NC(=S)NC(=O)C1=Cc1cn(C(=O)c2cccc3ccccc23)c2ccccc12 [Compound 3t] | > 100 |

Test system: leukemia cell lines in the panel
Assay: five dose-response growth inhibition, leukemia cell lines in the panel
Format: cell-based, human
Conditions: all four leukemia cell lines in the panel; read-out: GI50 values in the range
Method: (§1) The preliminary evaluation of compounds 3a-z was carried out at a single dose of 10 μM, against a panel of 60 human tumor cell lines, according to the procedure described by Rubinstein et al., Natl. Cancer. […] The human tumor cell line panel included leukemia, non-small cell lung, colon, central nervous system (CNS), melanoma, ovarian, renal, prostate, and breast cancer cell lines.
(§2) Dose-response curves were created by plotting cytotoxic effect against the log10 of the drug concentration for each cell line. Cytotoxic effects of each compound were determined as GI50 and LC50 values, which represent the molar drug concentration for causing 50% growth inhibition, and the concentration that kills 50% of the cells, respectively.

| SMILES | GI50 [µM] |
| --- | --- |
| O=C1NC(=S)NC(=O)C1=Cc1cn(C(=O)c2cccc3ccccc23)c2ccccc12 [Compound 3t] | 2.74 to 3.71 |

Test system: SF-539 (CNS Cancer)
Assay: five dose-response growth inhibition/cytotoxicity, SF-539
Format: cell-based, human
Conditions: not given

| SMILES | GI50 [µM] |
| --- | --- |
| O=C1NC(=S)NC(=O)C1=Cc1cn(C(=O)c2cccc3ccccc23)c2ccccc12 [Compound 3t] | 3.68 |

Same assay, conditions: read-out: LC50 (the source's name)

| SMILES | CC50 [µM] |
| --- | --- |
| O=C1NC(=S)NC(=O)C1=Cc1cn(C(=O)c2cccc3ccccc23)c2ccccc12 [Compound 3t] | 58.6 |

Test system: HCT-116 (Colon Cancer)
Assay: five dose-response growth inhibition/cytotoxicity, HCT-116
Format: cell-based, human
Conditions: not given

| SMILES | GI50 [µM] |
| --- | --- |
| O=C1NC(=S)NC(=O)C1=Cc1cn(C(=O)c2cccc3ccccc23)c2ccccc12 [Compound 3t] | 2.9 |

Same assay, conditions: read-out: LC50 (the source's name)

| SMILES | CC50 [µM] |
| --- | --- |
| O=C1NC(=S)NC(=O)C1=Cc1cn(C(=O)c2cccc3ccccc23)c2ccccc12 [Compound 3t] | > 100 |

Test system: M14 (Melanoma)
Assay: five dose-response growth inhibition/cytotoxicity, M14
Format: cell-based, human
Conditions: not given

| SMILES | GI50 [µM] |
| --- | --- |
| O=C1NC(=S)NC(=O)C1=Cc1cn(C(=O)c2cccc3ccccc23)c2ccccc12 [Compound 3t] | 3.22 |

Same assay, conditions: read-out: LC50 (the source's name)

| SMILES | CC50 [µM] |
| --- | --- |
| O=C1NC(=S)NC(=O)C1=Cc1cn(C(=O)c2cccc3ccccc23)c2ccccc12 [Compound 3t] | > 100 |

Test system: HCT-15 (Colon Cancer)
Assay: five dose-response growth inhibition/cytotoxicity, HCT-15
Format: cell-based, human
Conditions: not given

| SMILES | GI50 [µM] |
| --- | --- |
| O=C1NC(=S)NC(=O)C1=Cc1cn(C(=O)c2cccc3ccccc23)c2ccccc12 [Compound 3t] | 3.6 |

Same assay, conditions: read-out: LC50 (the source's name)

| SMILES | CC50 [µM] |
| --- | --- |
| O=C1NC(=S)NC(=O)C1=Cc1cn(C(=O)c2cccc3ccccc23)c2ccccc12 [Compound 3t] | > 100 |

Test system: HOP-62 (Non-Small Cell Lung Cancer)
Assay: five dose-response growth inhibition/cytotoxicity, HOP-62
Format: cell-based, human
Conditions: not given

| SMILES | GI50 [µM] |
| --- | --- |
| O=C1NC(=S)NC(=O)C1=Cc1cn(C(=O)c2cccc3ccccc23)c2ccccc12 [Compound 3t] | 1.3 |

Same assay, conditions: read-out: LC50 (the source's name)

| SMILES | CC50 [µM] |
| --- | --- |
| O=C1NC(=S)NC(=O)C1=Cc1cn(C(=O)c2cccc3ccccc23)c2ccccc12 [Compound 3t] | 44.8 |

Test system: CCRF-CEM (Leukemia)
Assay: five dose-response growth inhibition/cytotoxicity, CCRF-CEM
Format: cell-based, human
Conditions: not given

| SMILES | GI50 [µM] |
| --- | --- |
| O=C1NC(=S)NC(=O)C1=Cc1cn(C(=O)c2cccc3ccccc23)c2ccccc12 [Compound 3t] | 3.35 |

Same assay, conditions: read-out: LC50 (the source's name)

| SMILES | CC50 [µM] |
| --- | --- |
| O=C1NC(=S)NC(=O)C1=Cc1cn(C(=O)c2cccc3ccccc23)c2ccccc12 [Compound 3t] | > 100 |

Test system: OVCAR-3 (Ovarian Cancer)
Assay: five dose-response growth inhibition/cytotoxicity, OVCAR-3
Format: cell-based, human
Conditions: not given

| SMILES | GI50 [µM] |
| --- | --- |
| O=C1NC(=S)NC(=O)C1=Cc1cn(C(=O)c2cccc3ccccc23)c2ccccc12 [Compound 3t] | 2.46 |

Same assay, conditions: read-out: LC50 (the source's name)

| SMILES | CC50 [µM] |
| --- | --- |
| O=C1NC(=S)NC(=O)C1=Cc1cn(C(=O)c2cccc3ccccc23)c2ccccc12 [Compound 3t] | 46.2 |

Test system: SR (Leukemia)
Assay: five dose-response growth inhibition/cytotoxicity, SR
Format: cell-based, human
Conditions: not given

| SMILES | GI50 [µM] |
| --- | --- |
| O=C1NC(=S)NC(=O)C1=Cc1cn(C(=O)c2cccc3ccccc23)c2ccccc12 [Compound 3t] | 2.74 |

Same assay, conditions: read-out: LC50 (the source's name)

| SMILES | CC50 [µM] |
| --- | --- |
| O=C1NC(=S)NC(=O)C1=Cc1cn(C(=O)c2cccc3ccccc23)c2ccccc12 [Compound 3t] | 92.3 |

Test system: HL-60(TB) (Leukemia)
Assay: not given
Conditions: not given

| SMILES | GI50 [µM] |
| --- | --- |
| O=C1NC(=S)NC(=O)C1=Cc1cn(C(=O)c2cccc3ccccc23)c2ccccc12 [Compound 3t] | 3.36 |

Same assay, conditions: read-out: LC50

| SMILES | CC50 [µM] |
| --- | --- |
| O=C1NC(=S)NC(=O)C1=Cc1cn(C(=O)c2cccc3ccccc23)c2ccccc12 [Compound 3t] | > 100 |

Test system: not listed separately
Assay: five dose-response growth inhibition/cytotoxicity, UO-31
Format: cell-based, human
Conditions: not given

| SMILES | GI50 [µM] |
| --- | --- |
| O=C1NC(=S)NC(=O)C1=Cc1cn(C(=O)c2cccc3ccccc23)c2ccccc12 [Compound 3t] | 3.93 |

Same assay, conditions: read-out: LC50 (the source's name)

| SMILES | CC50 [µM] |
| --- | --- |
| O=C1NC(=S)NC(=O)C1=Cc1cn(C(=O)c2cccc3ccccc23)c2ccccc12 [Compound 3t] | > 100 |

Test system: U251 (CNS Cancer)
Assay: five dose-response growth inhibition/cytotoxicity, U251
Format: cell-based, human
Conditions: not given

| SMILES | GI50 [µM] |
| --- | --- |
| O=C1NC(=S)NC(=O)C1=Cc1cn(C(=O)c2cccc3ccccc23)c2ccccc12 [Compound 3t] | 3.58 |

Same assay, conditions: read-out: LC50 (the source's name)

| SMILES | CC50 [µM] |
| --- | --- |
| O=C1NC(=S)NC(=O)C1=Cc1cn(C(=O)c2cccc3ccccc23)c2ccccc12 [Compound 3t] | 50.7 |

Test system: LOX IMVI (Melanoma)
Assay: five dose-response growth inhibition/cytotoxicity, LOX IMVI
Format: cell-based, human
Conditions: not given

| SMILES | GI50 [µM] |
| --- | --- |
| O=C1NC(=S)NC(=O)C1=Cc1cn(C(=O)c2cccc3ccccc23)c2ccccc12 [Compound 3t] | 3.59 |

Same assay, conditions: read-out: LC50 (the source's name)

| SMILES | CC50 [µM] |
| --- | --- |
| O=C1NC(=S)NC(=O)C1=Cc1cn(C(=O)c2cccc3ccccc23)c2ccccc12 [Compound 3t] | 55.6 |

Test system: MDA-MB-435 (Melanoma)
Assay: five dose-response growth inhibition/cytotoxicity, MDA-MB-435
Format: cell-based, human
Conditions: MDA-MB-435
Method: as §1, §2

| SMILES | GI50 [µM] |
| --- | --- |
| O=C1NC(=S)NC(=O)C1=Cc1cn(C(=O)c2cccc3ccccc23)c2ccccc12 [Compound 3t] | 1.91 |

Same assay, conditions: MDA-MB-435; read-out: LC50 (the source's name)

| SMILES | CC50 [µM] |
| --- | --- |
| O=C1NC(=S)NC(=O)C1=Cc1cn(C(=O)c2cccc3ccccc23)c2ccccc12 [Compound 3t] | 9.23 |

Test system: K-562 (Leukemia)
Assay: five dose-response growth inhibition/cytotoxicity, K-562
Format: cell-based, human
Conditions: not given

| SMILES | GI50 [µM] |
| --- | --- |
| O=C1NC(=S)NC(=O)C1=Cc1cn(C(=O)c2cccc3ccccc23)c2ccccc12 [Compound 3t] | 3.71 |

Same assay, conditions: read-out: LC50 (the source's name)

| SMILES | CC50 [µM] |
| --- | --- |
| O=C1NC(=S)NC(=O)C1=Cc1cn(C(=O)c2cccc3ccccc23)c2ccccc12 [Compound 3t] | > 100 |

Test system: MOLT-4 (Leukemia)
Assay: five dose-response growth inhibition/cytotoxicity, MOLT-4
Format: cell-based, human
Conditions: not given

| SMILES | GI50 [µM] |
| --- | --- |
| O=C1NC(=S)NC(=O)C1=Cc1cn(C(=O)c2cccc3ccccc23)c2ccccc12 [Compound 3t] | 3.49 |

Same assay, conditions: read-out: LC50 (the source's name)

| SMILES | CC50 [µM] |
| --- | --- |
| O=C1NC(=S)NC(=O)C1=Cc1cn(C(=O)c2cccc3ccccc23)c2ccccc12 [Compound 3t] | 79 |

Test system: HOP-92 non-small cell lung cancer
Assay: five dose-response growth inhibition/cytotoxicity, HOP-92
Format: cell-based, human
Conditions: not given

| SMILES | GI50 [µM] |
| --- | --- |
| O=C1NC(=S)NC(=O)C1=Cc1cn(C(=O)c2cccc3ccccc23)c2ccccc12 [Compound 3t] | 1.3 |

Same assay, conditions: read-out: LC50 (the source's name)

| SMILES | CC50 [µM] |
| --- | --- |
| O=C1NC(=S)NC(=O)C1=Cc1cn(C(=O)c2cccc3ccccc23)c2ccccc12 [Compound 3t] | 44.8 |
